Measured values from PMC4203401 (Journal of Medicinal Chemistry, 2014).

How the values were obtained:
[1] = target: polymerase function of RT (Human immunodeficiency virus type 1 group M subtype B, UniProt P04585); test: HIV-1 RT polymerase inhibition; type: biochemical
[2] = target: HIV-1 IN (rIN), strand transfer (Human immunodeficiency virus type 1 group M subtype B, UniProt P04585); test: HIV-1 IN gel-based assay, strand transfer; type: biochemical; settings: IC50 for strand transfer
[3] = tested on: HIV-1(IIIB); test: HIV-1 replication inhibition in HeLa-CD4-LTR-β-gal cells; type: cell-based
[4] = target: HIV-1 RT-associated RNase H activity (Human immunodeficiency virus type 1 group M subtype B, UniProt P04585); test: HIV-1 RT RNase H inhibition; type: biochemical
[5] = tested on: HTLV-IIIB; settings: read-out: EC50, originally reported; HTLV-IIIB-based infection assay; ref 19b; cited from earlier work

Row | Inhibition of polymerase function of RT (inactive up to) [1] [µM] | IC50 [2] [nM] | SMILES | Ability to inhibit RNase H [4] | other results
1 | > 40 | < 100 | O=C(O)/C(O)=C/C(=O)c1cn(Cc2ccc(F)cc2)c2cc(N3CCOCC3)ccc2c1=O [Compound 12f, 4-[1-[(4-Fluorophenyl)methyl]-7-(morpholin-4-yl)-4-(1H)-quinolinon-3-yl]-2-hydroxy-4-oxo-2-butenoic Acid] | – | –
2 | > 40 | < 100 | O=C(O)/C(O)=C/C(=O)c1cn(Cc2ccc(F)cc2)c2cc(N3CCN(CCCCl)CC3)ccc2c1=O [Compound 12i, 4-[1-[(4-Fluorophenyl)methyl]-7-[N-(3-chloroprop-1-yl)piperazin-1-yl]-4-(1H)-quinolinon-3-yl]-2-hydroxy-4-oxo-2-butenoic Acid] | – | Block of HIV-1 replication ([3]; HeLa-CD4-LTR-β-gal cells, HIV-1(IIIB)): unable to block replication
3 | > 40 | – | O=C(O)/C(O)=C/C(=O)c1cn(Cc2ccc(F)cc2)c2cc(N3CCCC3)ccc2c1=O [Compound 7b, reference compound] | – | EC50 [5]: 170 nM

Further lines, the molecule ahead of its results:

Row | SMILES | Inhibition of polymerase function of RT (inactive up to) [1] [µM] | IC50 [2] [nM] | Ability to inhibit RNase H [4] | other results
4 | CCOC(=O)/C(O)=C/C(=O)c1cn(Cc2ccc(F)cc2)c2cc(N(C)C)ccc2c1=O [Compound 11g, 4-[1-[(4-Fluorophenyl)methyl]-7-(dimethylamino)-4-(1H)-quinolinon-3-yl]-2-hydroxy-4-oxo-2-butenoic Acid Ethyl Ester] | – | – | – | SI, selectivity index (CC50/EC50) ([3]; CC50/EC50 in HeLa cells): 20
5 | Cc1nnc(C(=O)NC(C)(C)c2nc(C(=O)NCc3ccc(F)cc3)c(O)c(=O)n2C)o1 [Compound 2, raltegravir] | – | – | inactive | –
6 | C[C@@H]1CCO[C@H]2Cn3cc(C(=O)NCc4ccc(F)cc4F)c(=O)c(O)c3C(=O)N12 [Compound 3, dolutegravir] | – | – | inactive | –
